Results published in US20040229251A1, “Detection of guanylyl and adenylyl cyclase activity” (The Regents of the University of Michigna, priority 2003, published 2004).

How the values were obtained:
[1] = target: T1, membrane-bound form of AC1 (adenylyl cyclase type I) expressed in sf9 cells (Homo sapiens, UniProt Q08828); test: membrane cyclase fluorescence assay; assay type: biochemical
T1 construct: made in house; host or cells: sf9 cells
Description: The activity of a membrane-bound form of AC1 (adenylyl cyclase type I) expressed in sf9 cells was measured using the fluorescence assay described above.

VC1 and ACGC domains = target: T2, VC1 and ACGC domains (UniProt P26769+P30803, D1018C/K938E); test: guanylyl cyclase activity in the presence of Mn2+, BODIPY FL-GTPγS as substrate; assay type: biochemical; settings: 5 mM Mg2+ and 5 mM Mn2+ vs 10 mM Mg2+
T2 construct: The soluble intracellular (C1 and C2) domains of adenylyl cyclase were utilized; The mutations to enhance guanylyl cyclase activity are in the C2 domain
Description: This Example describes the effect of Mn^2+ on guanylyl cyclase activity. All assays were performed at 22° C. in the presence of 2 μM BODIPY FL-GTPγS and the presence of 5 mM Mg ^2+ and 5 mM Mn^2+ or 10 mM Mg^2+ and the absence or presence of 100 μM forskolin (Fsk). Assays were performed in a 96 well, low fluorescence microtitre plate using a fluorescence plate reader. Excitation and emission wavelengths were 485 and 525 nm respectively.
The linear portion of the progress curves from data in FIG. 2B was fitted by linear regression with respect to time. The individual rates are plotted against the concentration of the VC1 domain.

[2] = test system: wild type adenylyl cyclases (ACs); settings: addition of Mn2+ compared with Mg2+; cited from earlier work

T1 sequence (Q08828 whole entry): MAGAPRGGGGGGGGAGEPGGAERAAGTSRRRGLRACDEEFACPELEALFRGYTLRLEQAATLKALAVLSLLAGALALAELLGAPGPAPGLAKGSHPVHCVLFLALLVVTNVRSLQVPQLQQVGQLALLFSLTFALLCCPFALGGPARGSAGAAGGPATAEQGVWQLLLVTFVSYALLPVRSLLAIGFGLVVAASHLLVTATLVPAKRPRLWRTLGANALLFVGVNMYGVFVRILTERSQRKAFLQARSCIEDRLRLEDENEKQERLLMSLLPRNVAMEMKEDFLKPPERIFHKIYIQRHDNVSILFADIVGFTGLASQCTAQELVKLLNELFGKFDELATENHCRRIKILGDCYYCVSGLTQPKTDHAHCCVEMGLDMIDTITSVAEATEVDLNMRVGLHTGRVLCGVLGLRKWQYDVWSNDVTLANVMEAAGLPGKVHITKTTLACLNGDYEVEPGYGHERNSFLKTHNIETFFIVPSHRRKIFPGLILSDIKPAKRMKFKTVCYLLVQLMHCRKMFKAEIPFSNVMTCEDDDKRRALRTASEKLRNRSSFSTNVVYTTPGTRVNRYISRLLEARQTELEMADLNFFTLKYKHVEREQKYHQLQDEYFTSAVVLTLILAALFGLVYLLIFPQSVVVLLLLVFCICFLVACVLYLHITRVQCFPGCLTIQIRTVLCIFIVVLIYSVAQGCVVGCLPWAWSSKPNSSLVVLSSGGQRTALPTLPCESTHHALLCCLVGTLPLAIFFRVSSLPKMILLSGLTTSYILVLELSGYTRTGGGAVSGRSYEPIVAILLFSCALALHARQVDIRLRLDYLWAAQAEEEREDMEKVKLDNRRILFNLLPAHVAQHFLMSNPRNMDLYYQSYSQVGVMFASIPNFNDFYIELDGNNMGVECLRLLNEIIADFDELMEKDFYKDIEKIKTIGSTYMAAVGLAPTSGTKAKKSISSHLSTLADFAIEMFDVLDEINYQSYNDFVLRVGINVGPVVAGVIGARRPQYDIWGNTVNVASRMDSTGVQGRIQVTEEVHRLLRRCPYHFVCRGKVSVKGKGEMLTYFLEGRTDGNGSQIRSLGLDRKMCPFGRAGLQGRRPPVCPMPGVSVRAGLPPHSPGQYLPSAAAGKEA

enhancement of the forskolin-activated rate of accumulation of BODIPY-thio-pyrophosphate (VC1 and ACGC domains; 100 μM forskolin) | effect on basal activity (VC1 and ACGC domains; absence of forskolin) | SMILES | effective concentration to produce the half maximal activation (EC50) [1] | alteration of the Km for GTP [2]
 |  | C=C[C@@]1(C)CC(=O)[C@]2(O)[C@@]3(C)[C@@H](O)CCC(C)(C)[C@@H]3[C@H](O)[C@H](OC(C)=O)[C@@]2(C)O1 [forskolin] | consistent with previously published values | 
over thirty-fold | enhanced basal activity significantly | [Mn+2] [Mn^2+] |  | at least 1000 fold
